# According to patent US9617256B2 (priority 2007, dated 2017):
# How the values were obtained:
# AECO001 HSA AGP = test: MIC broth microdilution, AECO001 HSA AGP; assay type: cell-based, E. coli; details: Escherichia coli
# Summary of the method: (§1)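 Strains were grown overnight at 35° C. on Mueller-Hinton agar, suspended to 0.5 McFarland and diluted to a final 3×10^5–7×10^5 CFU/mL. They were then exposed to 2-fold serial drug dilutions in cation-adjusted Mueller-Hinton broth and incubated 18-24 hours at 35° C.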
# APAE001 (ATCC27853) = test: MIC broth microdilution, APAE001; assay type: cell-based, P. aeruginosa; details: Pseudomonas aeruginosa, ATCC27853, read-out: MIC APAE001, APAE001 is ATCC27853
# Summary of the method: as §1
# [1] = system: ASAU001 (laboratory strain of S. aureus, ATCC29213); test: MIC broth microdilution, ASAU001; assay type: cell-based; details: Staphylococcus aureus, ATCC29213, read-out: MIC ASAU001
# Summary of the method: as §1
# [2] = system: AECO063 (ATCC25922 bearing an acrAB mutation); test: microbe, parasite or virus in culture; assay type: cell-based, E. coli; details: Escherichia coli, ATCC25922, read-out: MIC AECO063
# Summary of the method: as §1
# AECO001 (ATCC25922) = test: MIC broth microdilution, AECO001; assay type: cell-based, E. coli; details: Escherichia coli, ATCC25922, read-out: MIC AECO001
# Summary of the method: as §1
# [3] = system: APAE006 (strain of P. aeruginosa in which all efflux pumps are inactivated); test: microbe, parasite or virus in culture; assay type: cell-based; details: Pseudomonas aeruginosa, read-out: MIC APAE006, P. aeruginosa, all efflux pumps inactivated
# Summary of the method: (§2)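 (ambient air) in cation-adjusted MHB; inoculum from 0.5 McFarland suspensions, final 3×10^5–7×10^5 CFU/mL; 2-fold serial drug dilutions per CLSI. APAE006: P. aeruginosa with all efflux pumps inactivated.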
# [4] = system: AABA1060 (clinical isolate of Acinetobacter baumannii); test: MIC broth microdilution, AABA1060; assay type: cell-based; details: Acinetobacter baumannii, read-out: MIC AABA1060
# Summary of the method: as §1
# [5] = system: APAE006 in the presence of 8 micrograms per milliliter of polymyxin B nonapeptide; assay type: cell-based, P. aeruginosa; details: in the presence of 8 micrograms per milliliter of polymyxin B nonapeptide
# Summary of the method: as §2
SMILES,MIC (AECO001 HSA AGP) [µg/mL],MIC (APAE001 (ATCC27853)) [µg/mL],MIC [1] [µg/mL],MIC [2] [µg/mL],MIC (AECO001 (ATCC25922)) [µg/mL],MIC [3] [µg/mL],MIC [4] [µg/mL],MIC APAE006 + PMBN [5]
C[C@@H](N)[C@H](NC(=O)c1ccc(C#Cc2ccc(CN3CCc4[nH]ncc4C3)cc2)cc1)C(=O)NO [Example 118-2],16 to 64,< 2,16 to 64,< 2,< 2,< 2,2 to 16,A (MIC's of 2.0 μg/mL or less = A)
C[C@@H](N)[C@H](NC(=O)c1ccc(C#CC#Cc2ccccc2)cc1)C(=O)NO [Example 82-4],2 to 16,2 to 16,2 to 16,< 2,< 2,< 2,2 to 16,A (MIC's of 2.0 μg/mL or less = A)
C[C@@H](N)[C@H](NC(=O)c1ccc(C#Cc2ccc(CN3CCN(C)CC3)cc2)cc1)C(=O)NO [Example 115-4],16 to 64,< 2,> 64,< 2,2 to 16,< 2,16 to 64,A (MIC's of 2.0 μg/mL or less = A)
C[C@@H](N)[C@H](NC(=O)c1ccc(C#CC#Cc2ccc(CN3CCOCC3)cc2)cc1)C(=O)NO [Example 86-2],< 2,2 to 16,16 to 64,< 2,< 2,< 2,2 to 16,A (MIC's of 2.0 μg/mL or less = A)
"CC(C)C(C(=O)NO)C(=O)Nc1ccc(C#Cc2ccc(CN3CCOCC3)cc2)cc1 (stereo not shown) [Example 60-5, N-Hydroxy-2-isopropyl-N′-[4-(4-morpholin-4-ylmethyl-phenylethynyl)-phenyl]-malonamide]",> 64,> 64,> 64,16 to 64,16 to 64,16 to 64,> 64,B (MIC's of greater than 2.0 μg/mL to 16.0 μg/mL = B)
O=C(N[C@H](C(=O)NO)C1CCOCC1)c1ccc(/C=C/C#Cc2ccc(CN3CCOCC3)cc2)cc1 [Example 110-4],2 to 16,2 to 16,16 to 64,< 2,< 2,< 2,16 to 64,A (MIC's of 2.0 μg/mL or less = A)
"CC(=O)NC[C@H](NC(=O)c1ccc(/C=C/C#Cc2ccc(CN3CCOCC3)cc2)cc1)C(=O)NO [Example 111-3, N-[2-acetylamino-1-((S)-hydroxycarbamoyl)-ethyl]-4-[(E)-4-(4-morpholin-4-ylmethyl-phenyl)-but-1-en-3-ynyl]-]",2 to 16,2 to 16,> 64,< 2,< 2,< 2,2 to 16,A (MIC's of 2.0 μg/mL or less = A)
C[C@@H](N)[C@H](NC(=O)c1ccc(/C=C/C#Cc2ccc(C(F)(F)F)cc2)cc1)C(=O)NO [Example 114-6],2 to 16,2 to 16,2 to 16,< 2,< 2,2 to 16,2 to 16,A (MIC's of 2.0 μg/mL or less = A)
"C[C@@H](O)[C@H](NC(=O)c1ccc(C#C/C=C/c2ccccc2)cc1)C(=O)NO [Example 104-1, N-((1S,2R)-2-Hydroxy-1-hydroxycarbamoyl-propyl)-4-((E)-4-phenyl-but-3-en-1-ynyl)-benzamide]",2 to 16,2 to 16,16 to 64,< 2,< 2,< 2,2 to 16,A (MIC's of 2.0 μg/mL or less = A)
C[C@@H](N)[C@H](NC(=O)c1ccc(C#Cc2ccc(CNCC(C)(C)C)cc2)cc1)C(=O)NO [Example 118-4],2 to 16,< 2,> 64,< 2,< 2,< 2,16 to 64,A (MIC's of 2.0 μg/mL or less = A)
C[C@@H](N)[C@H](NC(=O)c1ccc(C#CC#CC2CCCCC2)cc1)C(=O)NO [Example 91-4],2 to 16,2 to 16,2 to 16,< 2,< 2,< 2,2 to 16,A (MIC's of 2.0 μg/mL or less = A)
C[C@@H](N)[C@H](NC(=O)c1ccc(C#CC#Cc2cccnc2)cc1)C(=O)NO [Example 88-3],2 to 16,< 2,> 64,< 2,< 2,< 2,2 to 16,A (MIC's of 2.0 μg/mL or less = A)
"C[C@@H](N)[C@H](NC(=O)c1ccc(C#Cc2ccc(CNC(=N)N)cc2)cc1)C(=O)NO [Example 131-3, N-((1S,2R)-2-Amino-1-hydroxycarbamoyl-propyl)-4-(4-guanidinomethyl-phenylethynyl)-benzamide]",16 to 64,2 to 16,16 to 64,16 to 64,16 to 64,< 2,16 to 64,A (MIC's of 2.0 μg/mL or less = A)
CC(C)(O)[C@H](NC(=O)c1ccc(/C=C/C#Cc2ccc(CN3CCOCC3)cc2)cc1)C(=O)NO [Example 110-7],2 to 16,2 to 16,> 64,< 2,< 2,< 2,< 2,A (MIC's of 2.0 μg/mL or less = A)
"C[C@@H](N)[C@H](NC(=O)c1ccc(CCc2ccc(CN3CCOCC3)cc2)cc1)C(=O)NO [Example 136-1, N-((2S,3R)-3-amino-1-(hydroxyamino)-1-oxobutan-2-yl)-4-(4-(morpholinomethyl)phenethyl)benzamide]",16 to 64,2 to 16,16 to 64,< 2,2 to 16,< 2,16 to 64,A (MIC's of 2.0 μg/mL or less = A)
O=C(N[C@@H](Cn1cncn1)C(=O)NO)c1ccc(/C=C/C#Cc2ccc(CN3CCOCC3)cc2)cc1 [Example 110-10],2 to 16,2 to 16,16 to 64,< 2,< 2,< 2,16 to 64,A (MIC's of 2.0 μg/mL or less = A)
"C[C@@H](O)[C@H](NC(=O)c1ccc(C#C/C=C/c2ccc(CN3CCOCC3)cc2)cc1)C(=O)NO [Example 96-1, N-((1S,2R)-2-Hydroxy-1-hydroxycarbamoyl-propyl)-4-[(E)-4-(4-morpholin-4-ylmethyl-phenyl)-but-3-en-1-ynyl]-benzamide]",< 2,2 to 16,> 64,< 2,< 2,< 2,2 to 16,A (MIC's of 2.0 μg/mL or less = A)
